Measurements as given in US20230103444A1 (The Regents of the University of Colorado, a Body Corporate, priority 2020, published 2023).
Like-named read-outs stand apart in the source and are kept apart here.

Assays:
[1] = target: T1, cat-CHD1L ATPase (Homo sapiens, UniProt Q86WJ1); experiment: CHD1L ATPase assay with recombinant catalytic domain (cat-CHD1L); type: biochemical; conditions: for inhibition at 20 µM: confirmed HTS hits, HTS at 20 μM, read-out: inhibition against cat-CHD1L ATPase
T1 construct: inferred from Ni-NTA / imidazole purification; made in house; host or cells: E. coli Rosetta 2 (DE3) pLysS; constructs were a gift from Helena Berglund, Karolinska Institute
T1 sequence (Q86WJ1 16-611 limits assumed): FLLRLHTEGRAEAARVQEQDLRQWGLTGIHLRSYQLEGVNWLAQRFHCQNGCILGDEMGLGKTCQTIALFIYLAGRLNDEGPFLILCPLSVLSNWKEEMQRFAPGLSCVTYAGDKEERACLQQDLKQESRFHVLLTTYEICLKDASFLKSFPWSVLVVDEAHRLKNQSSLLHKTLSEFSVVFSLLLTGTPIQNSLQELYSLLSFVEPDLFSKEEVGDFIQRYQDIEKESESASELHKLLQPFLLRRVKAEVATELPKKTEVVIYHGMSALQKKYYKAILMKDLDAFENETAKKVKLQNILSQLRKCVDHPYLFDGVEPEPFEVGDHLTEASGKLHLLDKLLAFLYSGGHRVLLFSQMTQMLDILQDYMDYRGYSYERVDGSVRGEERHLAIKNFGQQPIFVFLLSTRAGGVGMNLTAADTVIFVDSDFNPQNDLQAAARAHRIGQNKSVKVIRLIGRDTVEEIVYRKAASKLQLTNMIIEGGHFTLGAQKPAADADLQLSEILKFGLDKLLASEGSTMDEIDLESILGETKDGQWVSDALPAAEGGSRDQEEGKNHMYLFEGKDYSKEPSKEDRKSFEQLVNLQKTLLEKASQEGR
Experimental: All reactions were carried out using low volume non-binding surface 384-well plates (Corning Inc., Corning N.Y.). cat-CHD1L or fl-CHD1L (100 nM) and 200 nM c-Myc DNA or mononucelosome (Active Motif, Carlsbad, Calif.) were added to a buffer containing 50 mM Tris pH 7.5, 50 mM NaCl, 1 mM DTT, 5% glycerol, and the reaction was initiated by the addition of 10 μM ATP (New England Biolabs, Ipswich, Mass.) to a total volume of 10 μL and incubated at 37° C. for 1 h. ATPase activity was assayed by adding 500 nM of Phosphate Sensor (Life Technologies, Carlsbad, Calif.), containing labeled phosphate-binding protein, specifically labeled with the fluorophore MDCC, and measuring excitation (430 nm) and emission (450 nm) immediately on an EnVision® plate reader (PerkinElmer, Hopkinton, Mass.). An inorganic phosphate standard curve was used to convert the fluorescence to [Pi], and enzyme kinetics were determined using Prism8 (GraphPad Software, San Diego, Calif.).
Assay composition was the same as described above using cat-CHD1L, except that the reaction mixture volume was modified to accommodate addition of drug or DMSO. Using a Janus® liquid handler (PerkinElmer, Hopkinton, Mass.), a selected amount of compounds dissolved in 100% DMSO were mixed with 50 mM Tris pH 7.5, 50 mM NaCl, 1 mM DTT, 5% glycerol buffer to 200 μM in 10% DMSO. […] The negative control used was 1% DMSO and 10 mM EDTA was used as a positive control. Reactions were initiated with the addition of 10 μM ATP and incubated at 37° C. for 1 h. ATPase activity was measured by fluorescence by adding 500 nM Phosphate Sensor. cat-CHD1L was screened against a 20,000-compound diversity set from Life Chemicals (Woodbridge, Conn.) and a Kinase Inhibitor library from Selleck Chemicals (Houston, Tex.).
CHD1L Enzyme ATPase Assay. […] All reactions were carried out using low volume nonbinding surface 384-well plates (Corning Inc., Corning, N.Y.). […] The reaction was initiated by the addition of 10 μmol/L ATP (New England Biolabs, Ipswich, Mass.) to a total volume of 10 μL and incubated at 37° C. for 1 hour. ATPase activity was measured by adding 500 nmol/L of Phosphate Sensor (ThermoFisher, Waltham, Mass.) measuring excitation (430 nm) and emission (450 nm) immediately on an Envision plate reader (PerkinElmer, Waltham, Mass.). Background signal was determined by using all assay components excluding the enzyme.

[2] = system: SW620 tumor organoids; experiment: Tumor organoid cytotoxicity (CellTiter-Glo 3D)
[3] = system: HCT116 tumor organoids; experiment: Tumor organoid cytotoxicity (CellTiter-Glo 3D); type: cell-based, human; conditions: Homo sapiens
Experimental: Cell based cytotoxicity dose response and combination studies. […] Plates were then incubated for 3 days before treatment.
Cell Line Tumor Organoid Culture.
Tumor Organoid Cytotoxicity.

[4] = units given with the values (nM, μM), read-out: activity in dose response studies against cat-CHD1L ATPase (IC50, FIG. 1A)
[5] = Homo sapiens, SW-620, 72 h, read-out: 3 D Cytotoxicity 72 hr IC50 (μM) SW620
[6] = Homo sapiens, SW-620, read-out: Tumor Organoid Cytotoxicity IC50 (μM) SW620
[7] = HCT-116, 72 h, Table 6, read-out: 3 D Cytotoxicity 72 hr IC50 (μM) HCT116
[8] = HCT-116, single agent, Table 4A, read-out: Tumor Organoid Cytotoxicity IC50 (μM) HCT116
[9] = Table 6, read-out: cat-CHD1L inhibition IC50

Structure (SMILES) | IC50 [1, 9] [nM] | IC50 [2, 5] [µM] | IC50 [2, 6] [µM] | IC50 [3, 7] [µM] | other results
O=S(=O)(NCCN1CCOCC1)c1ccc(C2CCCCC2)cc1 [Compound 1] | – | – | – | – | inhibition at 20 µM [1]: > 50%; IC50 [1, 4]: 900 to 5000 nM
Cc1ccc(-c2ccc(S(=O)(=O)NCCN3CCOCC3)cc2)cc1C [Compound 2] | – | – | – | – | inhibition at 20 µM [1]: > 50%; IC50 [1, 4]: 900 to 5000 nM
COc1cc(C)c(C(C)C)cc1S(=O)(=O)NCCN1CCOCC1 [Compound 3] | – | – | – | – | inhibition at 20 µM [1]: > 50%; IC50 [1, 4]: 900 to 5000 nM
Cc1cc(Nc2ccc(NC(=O)CCc3c[nH]c4ccccc34)cc2)nc(N2CCCC2)n1 [Compound 6.6, 3-(1H-indol-3-yl)-N-(4-((6-methyl-2-(pyrrolidin-1-yl)pyrimidin-4-yl)amino)phenyl) propanamide] | – | > 40 | > 40 | > 40 | IC50 [3, 8]: > 30 µM
Cc1cc(Nc2ccc(NC(=O)CCCc3c[nH]c4ccccc34)cc2)nc(N2CCCC2)n1 [Compound 6.7, 4-(1H-indol-3-yl)-N-(4-((6-methyl-2-(pyrrolidin-1-yl)pyrimidin-4-yl)amino)phenyl)butanamide] | – | 13 | 12.7 | 17.6 | IC50 [3, 8]: 17.6 µM
Cc1cc(Nc2ccc(NC(=O)/C=C/c3c[nH]c4ccccc34)cc2)nc(N2CCCC2)n1 [Compound 6.8, (E)-3-(1H-indol-3-yl)-N-(4-((6-methyl-2-(pyrrolidin-1-yl)pyrimidin-4-yl)amino)phenyl)-acrylamide] | – | 4.3 | 3.6 | 6.8 | IC50 [3, 8]: 6.85 µM
Cc1cc(Nc2ccc(NC(=O)c3cn(C)c4ccccc34)cc2)nc(N2CCCC2)n1 [Compound 6.19, 1-methyl-N-(4-((6-methyl-2-(pyrrolidin-1-yl)pyrimidin-4-yl)amino)phenyl)-1H-indole-3-carboxamide] | – | 7.7 | 7.7 | > 40 | IC50 [3, 8]: > 30 µM
Cc1cc(Nc2ccc(NC(=O)Cc3c[nH]c4ncccc34)cc2)nc(N2CCCC2)n1 [Compound 6.20, N-(4-((6-methyl-2-(pyrrolidin-1-yl)pyrimidin-4-yl)amino)phenyl)-2-(1H-pyrrolo[2,3-b]pyridin-3-yl)acetamide] | – | 2.2 | 2.1 | – | –
COc1ccc2[nH]cc(CC(=O)Nc3ccc(Nc4cc(C)nc(N5CCCC5)n4)cc3)c2c1 [Compound 6.22, 2-(5-methoxy-1H-indol-3-yl)-N-(4-((6-methyl-2-(pyrrolidin-1-yl)pyrimidin-4-yl)amino)phenyl) acetamide] | – | – | – | – | IC50 ([2]; read-out: 3 D Cytotoxicity 72 hr IC50 (μM) SW620, Table 6): 11.3 µM; IC50 ([2]; read-out: Tumor Organoid Cytotoxicity IC50 (μM) SW620, single agent, Table 4A, updated experimental, rounded to one decimal): 12.6 µM
Cc1cc(Nc2ccc(NC(=O)Cc3c[nH]c4ccc(Br)cc34)cc2)nc(N2CCCC2)n1 [Compound 6.23, 2-(5-bromo-1H-indol-3-yl)-N-(4-((6-methyl-2-(pyrrolidin-1-yl)pyrimidin-4-yl)amino)phenyl) acetamide] | – | – | 5.7 | – | –
Cc1cc(Nc2ccc(NC(=O)Cn3ccc4ccccc43)cc2)nc(N2CCCC2)n1 [Compound 6.24, 2-(1H-indol-1-yl)-N-(4-((6-methyl-2-(pyrrolidin-1-yl)pyrimidin-4-yl)amino)phenyl)acetamide] | – | 3 | 2.7 | – | –
Cc1cc(Nc2ccc(NC(=O)Cc3c[nH]c4ccc(O)cc34)cc2)nc(N2CCCC2)n1 [Compound 6.25, 2-(5-hydroxy-1H-indol-3-yl)-N-(4-((6-methyl-2-(pyrrolidin-1-yl)pyrimidin-4-yl)amino)phenyl) acetamide] | – | 17.6 | 19.7 | – | –
Cc1cc(Nc2ccc(NC(=O)Cn3cc(CC4CC4)c4ccccc43)cc2)nc(N2CCCC2)n1 [Compound 6.26, 2-(3-(cyclopropylmethyl)-1H-indol-1-yl)-N-(4-((6-methyl-2-(pyrrolidin-1-yl)pyrimidin-4-yl)amino)phenyl)acetamide] | – | 4.7 | 5.5 | – | –
CCc1ccc2[nH]cc(CC(=O)Nc3ccc(Nc4cc(C)nc(N5CCCC5)n4)cc3)c2c1 [Compound 6.27, 2-(5-ethyl-1H-indol-3-yl)-N-(4-((6-methyl-2-(pyrrolidin-1-yl)pyrimidin-4-yl)amino)phenyl) acetamide] | – | 3 | 2.1 | – | –
Cc1cc(Nc2ccc(NC(=O)Cc3cn(S(=O)(=O)c4ccc(C(F)(F)F)cc4)c4ccccc34)cc2)nc(N2CCCC2)n1 [Compound 6.29, N-(4-((6-methyl-2-(pyrrolidin-1-yl)pyrimidin-4-yl)amino)phenyl)-2-(1-((4-(trifluoromethyl)phenyl)sulfonyl)-1H-indol-3-yl)acetamide] | – | 5.4 | 5.1 | – | –
Cc1cc(Nc2ccc(NC(=O)CC3C(=O)Nc4ccccc43)cc2)nc(N2CCCC2)n1 (stereo not drawn) [Compound 6.30, N-(4-((6-methyl-2-(pyrrolidin-1-yl)pyrimidin-4-yl)amino)phenyl)-2-(2-oxoindolin-3-yl) acetamide] | – | 6.1 | 6 | – | –

Further lines, with some results ahead:

IC50 [1, 9] [nM] | Structure (SMILES) | IC50 [2, 5] [µM] | IC50 [2, 6] [µM] | IC50 [3, 7] [µM] | other results
3000 | COC(=O)C1CCCN1c1nc(C)cc(Nc2ccc(NC(=O)Cc3cccs3)cc2)n1 (stereo not drawn) [Compound 6.34] | > 20 | – | – | –
1800 | COC(=O)C1CCCN1c1nc(C)cc(Nc2ccc(NC(=O)Cc3cc(Br)cs3)cc2)n1 (stereo not drawn) [Compound 6.35] | 8.6 | – | – | IC50 ([2]; Homo sapiens, SW-620, read-out: IC50 of cytotoxicity in SW620 cells): < 10 µM; CHD1L enzyme inhibition, in words ([1]; recombinant cat-CHD1L): good enzyme inhibition
> 20000 | Cc1cc(Nc2ccc(NC(=O)Cc3cc(Br)cs3)cc2)nc(N2CCCC2C(=O)O)n1 (stereo not drawn) [Compound 6.36] | > 20 | – | – | –
11400 | Cc1cc(Nc2ccc(NC(=O)Cc3cc(Br)cs3)cc2)nc(N2CCNCC2)n1 [Compound 6.40] | 10.5 | – | 4.8 | –
17700 | Cc1cc(Nc2ccc(NC(=O)Cc3ccccn3)cc2)nc(N2CCCC2)n1 [Compound 6.42] | – | – | 20.9 | –
10300 | Cc1cc(Nc2ccc(NC(=O)Cc3cccnc3)cc2)nc(N2CCCC2)n1 [Compound 6.43] | – | – | 19.1 | –
1200 | Cc1cc(NCc2ccc(NC(=O)Cc3cc(Br)cs3)cc2)nc(N2CCN(C)CC2)n1 [Compound 6.44] | 22.7 | – | 14 | –
1400 | Cc1cc(N2CCN(C)CC2)nc(NCc2ccc(NC(=O)Cc3cc(Br)cs3)cc2)n1 [Compound 6.45] | 27.2 | – | 10.6 | –
700 | Cc1cc(NCc2ccc(NC(=O)Cc3cc(Br)cs3)cc2)nc(N2CCCCC2)n1 [Compound 6.46] | 12.5 | – | 8.3 | –
800 | Cc1cc(N2CCCCC2)nc(NCc2ccc(NC(=O)Cc3cc(Br)cs3)cc2)n1 [Compound 6.47] | 13.8 | – | 9.3 | –
4500 | Cc1cc(Nc2ccc(NC(=O)Cc3cc(Br)cs3)cc2)nc(N2CCN(C)CC2)n1 [Compound 6.48] | 21.8 | – | 7.6 | –
